{"source": "paper PMC10337138", "about": "(Acta Neuropathologica Communications, 2023)", "conditions_in_all_cases": "1 mM ATP; inhibitor", "key": {"ABL2": {"target": "ABL2 (Homo sapiens, UniProt P42684)", "sequence (P42684 whole entry)": "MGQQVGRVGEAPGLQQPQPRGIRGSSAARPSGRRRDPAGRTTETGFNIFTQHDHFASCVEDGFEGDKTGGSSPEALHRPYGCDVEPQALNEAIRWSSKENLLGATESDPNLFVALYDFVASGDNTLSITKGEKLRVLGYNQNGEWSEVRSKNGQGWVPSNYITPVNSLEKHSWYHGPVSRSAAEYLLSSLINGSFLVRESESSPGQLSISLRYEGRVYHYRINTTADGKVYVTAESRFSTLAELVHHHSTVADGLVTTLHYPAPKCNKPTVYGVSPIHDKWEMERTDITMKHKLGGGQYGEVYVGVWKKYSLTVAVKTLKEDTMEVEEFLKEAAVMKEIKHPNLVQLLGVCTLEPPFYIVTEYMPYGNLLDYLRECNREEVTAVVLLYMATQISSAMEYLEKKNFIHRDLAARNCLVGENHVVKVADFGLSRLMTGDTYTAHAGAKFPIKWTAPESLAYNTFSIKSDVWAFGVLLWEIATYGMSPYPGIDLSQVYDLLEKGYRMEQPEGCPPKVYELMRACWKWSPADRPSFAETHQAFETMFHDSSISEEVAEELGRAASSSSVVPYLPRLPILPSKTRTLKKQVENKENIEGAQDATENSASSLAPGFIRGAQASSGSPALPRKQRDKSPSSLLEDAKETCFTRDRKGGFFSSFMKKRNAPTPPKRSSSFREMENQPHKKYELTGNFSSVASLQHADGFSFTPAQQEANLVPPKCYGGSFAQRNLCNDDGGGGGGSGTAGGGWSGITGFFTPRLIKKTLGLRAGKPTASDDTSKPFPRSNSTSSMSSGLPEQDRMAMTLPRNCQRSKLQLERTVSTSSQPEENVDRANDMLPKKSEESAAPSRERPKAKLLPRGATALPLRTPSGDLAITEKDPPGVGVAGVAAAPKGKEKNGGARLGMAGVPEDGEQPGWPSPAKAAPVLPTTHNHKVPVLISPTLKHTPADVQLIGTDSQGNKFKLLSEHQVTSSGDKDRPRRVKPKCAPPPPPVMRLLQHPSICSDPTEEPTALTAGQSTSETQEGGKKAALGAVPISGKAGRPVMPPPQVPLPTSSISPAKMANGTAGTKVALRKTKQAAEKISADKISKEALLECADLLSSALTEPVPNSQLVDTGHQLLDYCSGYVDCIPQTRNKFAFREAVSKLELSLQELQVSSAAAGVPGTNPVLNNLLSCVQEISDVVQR", "protocol": "(§1) Kinase selectivity panel Kinome profiling was conducted by AssayQuant Technologies (Marlboro, MA) using Sox chromophore technology and Sox-based peptide substrates developed for human kinases in a 384-well format. Compounds were tested at 1 µM in the presence of 1 mM ATP."}, "AKT2": {"target": "AKT2 (Homo sapiens, UniProt P31751)", "protocol": "as §1"}, "BMP2K/BIKE": {"target": "BMP2K/BIKE (Homo sapiens, UniProt Q9NSY1)", "protocol": "as §1"}, "BUB1": {"target": "BUB1 (Homo sapiens, UniProt O43683)", "protocol": "as §1"}, "CAMK2B": {"target": "CAMK2B (Homo sapiens, UniProt Q13554)", "protocol": "as §1"}, "CAMK2G": {"target": "CAMK2G (Homo sapiens, UniProt Q13555)", "sequence (Q13555 whole entry)": "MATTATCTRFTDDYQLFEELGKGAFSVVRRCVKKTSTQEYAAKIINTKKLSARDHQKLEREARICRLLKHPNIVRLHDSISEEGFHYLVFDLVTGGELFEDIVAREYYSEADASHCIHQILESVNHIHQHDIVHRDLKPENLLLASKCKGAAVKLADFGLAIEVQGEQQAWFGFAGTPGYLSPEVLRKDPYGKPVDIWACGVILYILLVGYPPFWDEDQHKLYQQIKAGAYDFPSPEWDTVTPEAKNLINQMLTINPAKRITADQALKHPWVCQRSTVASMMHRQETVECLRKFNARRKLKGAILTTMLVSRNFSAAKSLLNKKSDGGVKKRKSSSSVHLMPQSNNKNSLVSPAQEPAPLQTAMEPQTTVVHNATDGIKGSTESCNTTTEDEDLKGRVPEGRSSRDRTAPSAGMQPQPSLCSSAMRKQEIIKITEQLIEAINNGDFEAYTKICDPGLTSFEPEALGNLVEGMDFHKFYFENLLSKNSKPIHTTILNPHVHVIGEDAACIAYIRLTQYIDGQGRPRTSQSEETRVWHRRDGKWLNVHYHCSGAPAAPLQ", "protocol": "as §1"}, "CAMKK1": {"target": "CAMKK1 (Homo sapiens, UniProt Q8N5S9)", "protocol": "as §1"}, "CDC42BPA/MRCKA": {"target": "CDC42BPA/MRCKA (Homo sapiens, UniProt Q5VT25)", "protocol": "as §1"}, "CRIK/CIT": {"target": "CRIK/CIT (Homo sapiens, UniProt O14578)", "protocol": "as §1"}, "CTK": {"target": "T1, CTK (Homo sapiens, UniProt P42679)", "T1 construct": "gene MATK", "protocol": "as §1"}, "DYRK4": {"target": "DYRK4 (Homo sapiens, UniProt Q9NR20)", "protocol": "as §1"}, "EIF2AK2/PKR": {"target": "EIF2AK2/PKR (Homo sapiens, UniProt P19525)", "protocol": "as §1"}, "EPHB1": {"target": "EPHB1 (Homo sapiens, UniProt P54762)", "protocol": "as §1"}, "FGFR3": {"target": "FGFR3 (Homo sapiens, UniProt P22607)", "protocol": "as §1"}, "FLT1": {"target": "FLT1 (Homo sapiens, UniProt P17948)", "protocol": "as §1"}, "FRK": {"target": "FRK (Homo sapiens, UniProt P42685)", "protocol": "as §1"}, "GRK2": {"target": "GRK2 (Homo sapiens, UniProt P25098)", "protocol": "as §1"}, "ICK": {"target": "T2, ICK (Homo sapiens, UniProt Q9UPZ9)", "T2 construct": "gene CILK1", "T2 sequence (Q9UPZ9 whole entry)": "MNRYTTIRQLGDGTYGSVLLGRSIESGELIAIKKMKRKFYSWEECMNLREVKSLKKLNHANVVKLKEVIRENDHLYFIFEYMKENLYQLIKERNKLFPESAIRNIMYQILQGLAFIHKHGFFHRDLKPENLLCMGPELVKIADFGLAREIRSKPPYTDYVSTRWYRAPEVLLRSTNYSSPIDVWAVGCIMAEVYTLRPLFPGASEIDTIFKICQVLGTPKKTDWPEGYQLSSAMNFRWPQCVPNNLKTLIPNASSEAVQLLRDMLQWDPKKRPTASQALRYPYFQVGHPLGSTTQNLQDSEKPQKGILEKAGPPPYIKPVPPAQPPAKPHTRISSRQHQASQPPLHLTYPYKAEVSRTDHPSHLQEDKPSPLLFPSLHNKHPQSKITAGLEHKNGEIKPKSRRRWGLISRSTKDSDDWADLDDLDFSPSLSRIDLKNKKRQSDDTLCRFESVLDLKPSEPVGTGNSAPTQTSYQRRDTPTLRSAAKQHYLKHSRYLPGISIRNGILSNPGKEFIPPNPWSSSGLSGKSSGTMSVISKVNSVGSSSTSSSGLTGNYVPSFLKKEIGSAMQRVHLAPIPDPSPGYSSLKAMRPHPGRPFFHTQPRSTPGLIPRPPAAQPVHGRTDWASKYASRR", "protocol": "as §1"}, "JAK1(JH1)": {"target": "JAK1(JH1) (Homo sapiens, UniProt P23458)", "protocol": "as §1"}, "LCK": {"target": "LCK (Homo sapiens, UniProt P06239)", "protocol": "as §1"}, "LRRK2": {"target": "LRRK2 (Homo sapiens, UniProt Q5S007)", "protocol": "as §1"}, "MAP3K5": {"target": "MAP3K5 (Homo sapiens, UniProt Q99683)", "protocol": "as §1"}, "MAPK7/ERK5": {"target": "MAPK7/ERK5 (Homo sapiens, UniProt Q13164)", "protocol": "as §1"}, "MARK1": {"target": "MARK1 (Homo sapiens, UniProt Q9P0L2)", "sequence (Q9P0L2 whole entry)": "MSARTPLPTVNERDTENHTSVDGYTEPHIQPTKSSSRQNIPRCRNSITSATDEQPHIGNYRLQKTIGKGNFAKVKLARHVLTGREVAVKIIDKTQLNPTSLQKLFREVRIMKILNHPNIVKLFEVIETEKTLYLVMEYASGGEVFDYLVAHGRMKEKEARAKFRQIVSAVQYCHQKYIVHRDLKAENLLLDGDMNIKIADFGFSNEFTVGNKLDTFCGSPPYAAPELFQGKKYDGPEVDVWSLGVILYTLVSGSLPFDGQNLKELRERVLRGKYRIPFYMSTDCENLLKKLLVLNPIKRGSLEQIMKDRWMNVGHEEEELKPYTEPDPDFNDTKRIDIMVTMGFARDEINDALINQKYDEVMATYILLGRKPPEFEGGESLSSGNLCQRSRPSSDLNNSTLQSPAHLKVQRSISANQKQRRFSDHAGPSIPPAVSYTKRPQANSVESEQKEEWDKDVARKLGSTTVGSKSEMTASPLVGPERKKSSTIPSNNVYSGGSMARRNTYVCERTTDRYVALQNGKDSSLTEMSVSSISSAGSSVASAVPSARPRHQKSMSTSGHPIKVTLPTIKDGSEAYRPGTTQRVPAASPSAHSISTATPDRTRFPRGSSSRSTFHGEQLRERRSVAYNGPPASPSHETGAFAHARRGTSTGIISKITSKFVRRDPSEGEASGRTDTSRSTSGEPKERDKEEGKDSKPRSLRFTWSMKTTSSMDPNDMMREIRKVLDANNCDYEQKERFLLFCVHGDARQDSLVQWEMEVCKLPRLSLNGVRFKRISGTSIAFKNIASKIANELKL", "protocol": "as §1"}, "MINK1": {"target": "MINK1 (Homo sapiens, UniProt Q8N4C8)", "protocol": "as §1"}, "MLK4": {"target": "T3, MLK4 (Homo sapiens, UniProt Q5TCX8)", "T3 construct": "gene MAP3K21", "protocol": "as §1"}, "MYLK/MLCK": {"target": "MYLK/MLCK (Homo sapiens, UniProt Q15746)", "protocol": "as §1"}, "NEK11": {"target": "NEK11 (Homo sapiens, UniProt Q8NG66)", "protocol": "as §1"}, "PASK": {"target": "PASK (Homo sapiens, UniProt Q96RG2)", "protocol": "as §1"}, "PHKG2": {"target": "PHKG2 (Homo sapiens, UniProt P15735)", "protocol": "as §1"}, "PIM2": {"target": "PIM2 (Homo sapiens, UniProt Q9P1W9)", "protocol": "as §1"}, "PKN3": {"target": "PKN3 (Homo sapiens, UniProt Q6P5Z2)", "sequence (Q6P5Z2 whole entry)": "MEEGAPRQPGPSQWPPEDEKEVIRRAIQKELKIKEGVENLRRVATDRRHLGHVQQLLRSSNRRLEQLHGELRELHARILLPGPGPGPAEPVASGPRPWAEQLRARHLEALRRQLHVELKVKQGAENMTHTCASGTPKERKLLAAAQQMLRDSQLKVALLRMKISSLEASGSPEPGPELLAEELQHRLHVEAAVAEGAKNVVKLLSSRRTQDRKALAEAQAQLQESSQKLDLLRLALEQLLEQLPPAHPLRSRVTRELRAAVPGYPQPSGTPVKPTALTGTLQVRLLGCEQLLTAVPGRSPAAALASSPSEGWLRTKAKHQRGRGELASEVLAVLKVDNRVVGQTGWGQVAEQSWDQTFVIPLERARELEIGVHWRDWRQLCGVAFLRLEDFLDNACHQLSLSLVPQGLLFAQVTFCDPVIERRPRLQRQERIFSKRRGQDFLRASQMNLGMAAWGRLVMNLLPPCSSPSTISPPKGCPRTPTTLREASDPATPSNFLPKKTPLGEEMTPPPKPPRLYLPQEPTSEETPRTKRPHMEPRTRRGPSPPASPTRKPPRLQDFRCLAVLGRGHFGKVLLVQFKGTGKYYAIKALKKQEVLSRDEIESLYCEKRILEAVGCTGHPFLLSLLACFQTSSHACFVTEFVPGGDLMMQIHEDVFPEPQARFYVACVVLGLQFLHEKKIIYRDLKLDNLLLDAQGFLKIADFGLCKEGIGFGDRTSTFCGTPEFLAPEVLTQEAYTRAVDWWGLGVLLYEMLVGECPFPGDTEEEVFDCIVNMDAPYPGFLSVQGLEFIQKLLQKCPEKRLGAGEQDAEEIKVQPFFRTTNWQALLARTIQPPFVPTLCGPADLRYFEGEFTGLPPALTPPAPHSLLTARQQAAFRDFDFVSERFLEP", "protocol": "as §1"}, "PTK6/BRK": {"target": "PTK6/BRK (Homo sapiens, UniProt Q13882)", "protocol": "as §1"}, "ROS": {"target": "T4, ROS (Homo sapiens, UniProt P08922)", "T4 construct": "gene ROS1", "protocol": "as §1"}, "RPS6KA3/RSK2": {"target": "RPS6KA3/RSK2 (Homo sapiens, UniProt P51812)", "sequence (P51812 whole entry)": "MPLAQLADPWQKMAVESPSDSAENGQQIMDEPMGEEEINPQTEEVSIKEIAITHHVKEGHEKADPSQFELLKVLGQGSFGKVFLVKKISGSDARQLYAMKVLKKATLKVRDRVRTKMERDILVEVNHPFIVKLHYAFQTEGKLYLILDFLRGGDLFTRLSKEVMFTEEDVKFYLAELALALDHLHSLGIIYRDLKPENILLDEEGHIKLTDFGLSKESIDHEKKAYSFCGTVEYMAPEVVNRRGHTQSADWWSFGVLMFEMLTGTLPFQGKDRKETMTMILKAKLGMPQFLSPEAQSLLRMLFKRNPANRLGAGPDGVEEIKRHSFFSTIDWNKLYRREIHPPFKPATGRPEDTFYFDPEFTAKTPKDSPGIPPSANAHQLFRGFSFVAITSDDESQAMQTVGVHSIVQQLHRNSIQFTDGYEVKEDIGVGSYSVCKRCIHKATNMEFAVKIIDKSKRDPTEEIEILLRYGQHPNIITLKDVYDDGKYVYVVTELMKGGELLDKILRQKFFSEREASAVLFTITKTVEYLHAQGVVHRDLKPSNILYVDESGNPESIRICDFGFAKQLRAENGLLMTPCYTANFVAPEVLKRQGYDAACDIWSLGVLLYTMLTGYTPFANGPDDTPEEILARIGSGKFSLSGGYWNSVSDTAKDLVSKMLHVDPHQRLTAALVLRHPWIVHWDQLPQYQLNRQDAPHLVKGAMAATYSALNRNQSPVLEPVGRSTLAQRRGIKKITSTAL", "protocol": "as §1"}, "SIK2": {"target": "SIK2 (Homo sapiens, UniProt Q9H0K1)", "protocol": "as §1"}, "SNRK": {"target": "SNRK (Homo sapiens, UniProt Q9NRH2)", "protocol": "as §1"}, "TAOK2": {"target": "TAOK2 (Homo sapiens, UniProt Q9UL54)", "protocol": "as §1"}, "YSK4": {"target": "T5, YSK4 (Homo sapiens, UniProt Q56UN5)", "T5 construct": "gene MAP3K19", "protocol": "as §1"}}}
{"compound": "C=CC(=O)N1CCC[C@@H](n2nc(-c3ccc(Oc4ccccc4)cc3)c3c(N)ncnc32)C1", "note": "[Ibrutinib]", "values": [{"measurement": "1 µM GBD00276 (ibrutinib), % inhibition", "setting": "ABL2", "value": -32.13, "unit": "%"}, {"measurement": "1 µM GBD00276 (ibrutinib), % inhibition", "setting": "AKT2", "value": 17.43, "unit": "%"}, {"measurement": "1 µM GBD00276 (ibrutinib), % inhibition", "setting": "BMP2K/BIKE", "value": 12.88, "unit": "%"}, {"measurement": "1 µM GBD00276 (ibrutinib), % inhibition", "setting": "BUB1", "value": 26.62, "unit": "%"}, {"measurement": "1 µM GBD00276 (ibrutinib), % inhibition", "setting": "CAMK2B", "value": 4.39, "unit": "%"}, {"measurement": "1 µM GBD00276 (ibrutinib), % inhibition", "setting": "CAMK2G", "value": 8.429, "unit": "%"}, {"measurement": "1 µM GBD00276 (ibrutinib), % inhibition", "setting": "CAMKK1", "value": 7.498, "unit": "%"}, {"measurement": "1 µM GBD00276 (ibrutinib), % inhibition", "setting": "CDC42BPA/MRCKA", "value": -8.638, "unit": "%"}, {"measurement": "1 µM GBD00276 (ibrutinib), % inhibition", "setting": "CRIK/CIT", "value": -0.4372, "unit": "%"}, {"measurement": "1 µM GBD00276 (ibrutinib), % inhibition", "setting": "CTK", "value": -75.13, "unit": "%"}, {"measurement": "1 µM GBD00276 (ibrutinib), % inhibition", "setting": "DYRK4", "value": 6.524, "unit": "%"}, {"measurement": "1 µM GBD00276 (ibrutinib), % inhibition", "setting": "EIF2AK2/PKR", "value": 0.3752, "unit": "%"}, {"measurement": "1 µM GBD00276 (ibrutinib), % inhibition", "setting": "EPHB1", "value": -0.8801, "unit": "%"}, {"measurement": "1 µM GBD00276 (ibrutinib), % inhibition", "setting": "FGFR3", "value": 31.81, "unit": "%"}, {"measurement": "1 µM GBD00276 (ibrutinib), % inhibition", "setting": "FLT1", "value": 31.87, "unit": "%"}, {"measurement": "1 µM GBD00276 (ibrutinib), % inhibition", "setting": "FRK", "value": 45.62, "unit": "%"}, {"measurement": "1 µM GBD00276 (ibrutinib), % inhibition", "setting": "GRK2", "value": 3.639, "unit": "%"}, {"measurement": "1 µM GBD00276 (ibrutinib), % inhibition", "setting": "ICK", "value": -2.761, "unit": "%"}, {"measurement": "1 µM GBD00276 (ibrutinib), % inhibition", "setting": "JAK1(JH1)", "value": 19.49, "unit": "%"}, {"measurement": "1 µM GBD00276 (ibrutinib), % inhibition", "setting": "LCK", "value": 75.25, "unit": "%"}, {"measurement": "1 µM GBD00276 (ibrutinib), % inhibition", "setting": "LRRK2", "value": -5.334, "unit": "%"}, {"measurement": "1 µM GBD00276 (ibrutinib), % inhibition", "setting": "MAP3K5", "value": -3.817, "unit": "%"}, {"measurement": "1 µM GBD00276 (ibrutinib), % inhibition", "setting": "MAPK7/ERK5", "value": -0.1217, "unit": "%"}, {"measurement": "1 µM GBD00276 (ibrutinib), % inhibition", "setting": "MARK1", "value": -2.409, "unit": "%"}, {"measurement": "1 µM GBD00276 (ibrutinib), % inhibition", "setting": "MINK1", "value": 7.641, "unit": "%"}, {"measurement": "1 µM GBD00276 (ibrutinib), % inhibition", "setting": "MLK4", "value": 4.614, "unit": "%"}, {"measurement": "1 µM GBD00276 (ibrutinib), % inhibition", "setting": "MYLK/MLCK", "value": -5.288, "unit": "%"}, {"measurement": "1 µM GBD00276 (ibrutinib), % inhibition", "setting": "NEK11", "value": -9.805, "unit": "%"}, {"measurement": "1 µM GBD00276 (ibrutinib), % inhibition", "setting": "PASK", "value": 16.95, "unit": "%"}, {"measurement": "1 µM GBD00276 (ibrutinib), % inhibition", "setting": "PHKG2", "value": 1.522, "unit": "%"}, {"measurement": "1 µM GBD00276 (ibrutinib), % inhibition", "setting": "PIM2", "value": -3.683, "unit": "%"}, {"measurement": "1 µM GBD00276 (ibrutinib), % inhibition", "setting": "PKN3", "value": 29.61, "unit": "%"}, {"measurement": "1 µM GBD00276 (ibrutinib), % inhibition", "setting": "PTK6/BRK", "value": 98.64, "unit": "%"}, {"measurement": "1 µM GBD00276 (ibrutinib), % inhibition", "setting": "ROS", "value": 2.485, "unit": "%"}, {"measurement": "1 µM GBD00276 (ibrutinib), % inhibition", "setting": "RPS6KA3/RSK2", "value": 28.78, "unit": "%"}, {"measurement": "1 µM GBD00276 (ibrutinib), % inhibition", "setting": "SIK2", "value": -7.577, "unit": "%"}, {"measurement": "1 µM GBD00276 (ibrutinib), % inhibition", "setting": "SNRK", "value": 6.19, "unit": "%"}, {"measurement": "1 µM GBD00276 (ibrutinib), % inhibition", "setting": "TAOK2", "value": 11.03, "unit": "%"}, {"measurement": "1 µM GBD00276 (ibrutinib), % inhibition", "setting": "YSK4", "value": 25.63, "unit": "%"}]}
